Results as given in the supplement of paper PMC10307832.

Assays:
Assay in all cases: relative viability (nuclei count vs DMSO), 5 days (fraction); higher = more cells survive
BEN = test system: BEN
Summary of the method: (§1)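 Five library-drug doses in √10 steps were combined with a fixed anchor-drug dose, or a single drug was given alone, by pin tool to lung cancer cell lines in 1536-well plates the day after seeding. Nuclei were stained and counted after 5 days. Relative viability is the nuclei count in treated wells over that in vehicle wells, taken as the median of duplicate plates.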

COR-L 105 = test system: COR-L 105
Summary of the method: as §1

COR-L23 = test system: COR-L23
Summary of the method: as §1

EKVX = test system: EKVX
Summary of the method: as §1

HCC-15 = test system: HCC-15
Summary of the method: as §1

HCC-366 = test system: HCC-366
Summary of the method: as §1

HCC-827 = test system: HCC-827
Summary of the method: as §1

LC-2-ad = test system: LC-2-ad
Summary of the method: as §1

LCLC-97TM1 = test system: LCLC-97TM1
Summary of the method: as §1

LU99A = test system: LU99A
Summary of the method: as §1

NCI-H1755 = test system: NCI-H1755
Summary of the method: as §1

NCI-H1915 = test system: NCI-H1915
Summary of the method: as §1

NCI-H1944 = test system: NCI-H1944
Summary of the method: as §1

NCI-H1993 = test system: NCI-H1993
Summary of the method: as §1

NCI-H2342 = test system: NCI-H2342
Summary of the method: as §1

NCI-H3122 = test system: NCI-H3122
Summary of the method: as §1

NCI-H522 = test system: NCI-H522
Summary of the method: as §1

NCI-H596 = test system: NCI-H596
Summary of the method: as §1

PC-3 [JPC-3] = test system: PC-3 [JPC-3]
Summary of the method: as §1

RERF-LC-KJ = test system: RERF-LC-KJ
Summary of the method: as §1

SK-LU-1 = test system: SK-LU-1
Summary of the method: as §1

SK-MES-1 = test system: SK-MES-1
Summary of the method: as §1

With `COCC1(CO)C(=O)C2CCN1CC2` (stereo unspecified) [PRIMA-1MET] + O=C(c1cc(Cc2n[nH]c(=O)c3ccccc23)ccc1F)N1CCN(C(=O)C2CC2)CC1 [Olaparib] (partner 8 µM) the relative viability (BEN; first compound 0.2 µM) was 1.19, the relative viability (BEN; first compound 0.6325 µM) was 1.11 and the relative viability (BEN; first compound 6.325 µM) was 1.12. The relative viability (BEN; first compound 20 µM) was 1.07, the relative viability (COR-L 105; first compound 0.2 µM) was 0.687 and the relative viability (COR-L 105; first compound 0.6325 µM) was 0.685. For the same compound, the relative viability (COR-L 105; first compound 2 µM) was 0.713, the relative viability (COR-L 105; first compound 6.325 µM) was 0.688 and the relative viability (COR-L 105; first compound 20 µM) was 0.458. For the same compound, the relative viability (COR-L23; first compound 0.2 µM) was 0.38, the relative viability (COR-L23; first compound 0.6325 µM) was 0.315 and the relative viability (COR-L23; first compound 2 µM) was 0.379. It also gave a relative viability (COR-L23; first compound 6.325 µM) of 0.315, a relative viability (COR-L23; first compound 20 µM) of 0.106 and a relative viability (EKVX; first compound 0.2 µM) of 1.01. It also gave a relative viability (EKVX; first compound 2 µM) of 0.694, a relative viability (EKVX; first compound 6.325 µM) of 0.825 and a relative viability (EKVX; first compound 20 µM) of 0.403. For the same compound, the relative viability (HCC-15; first compound 0.2 µM) was 0.789, the relative viability (HCC-15; first compound 0.6325 µM) was 0.772 and the relative viability (HCC-15; first compound 2 µM) was 0.746. The relative viability (HCC-15; first compound 6.325 µM) was 0.668, the relative viability (HCC-15; first compound 20 µM) was 0.628 and the relative viability (HCC-366; first compound 0.2 µM) was 0.396. The relative viability (HCC-366; first compound 0.6325 µM) was 0.346, the relative viability (HCC-366; first compound 2 µM) was 0.328 and the relative viability (HCC-366; first compound 6.325 µM) was 0.34. It also gave a relative viability (HCC-366; first compound 20 µM) of 0.0865, a relative viability (HCC-827; first compound 0.2 µM) of 0.675 and a relative viability (HCC-827; first compound 0.6325 µM) of 0.675. The relative viability (HCC-827; first compound 2 µM) was 0.587, the relative viability (HCC-827; first compound 6.325 µM) was 0.684 and the relative viability (HCC-827; first compound 20 µM) was 0.627. It also gave a relative viability (LC-2-ad; first compound 0.2 µM) of 0.751, a relative viability (LC-2-ad; first compound 0.6325 µM) of 0.673 and a relative viability (LC-2-ad; first compound 2 µM) of 0.659. The relative viability (LC-2-ad; first compound 6.325 µM) was 0.68, the relative viability (LC-2-ad; first compound 20 µM) was 0.7 and the relative viability (LCLC-97TM1; first compound 0.2 µM) was 0.45. It also gave a relative viability (LCLC-97TM1; first compound 0.6325 µM) of 0.33, a relative viability (LCLC-97TM1; first compound 2 µM) of 0.461 and a relative viability (LCLC-97TM1; first compound 6.325 µM) of 0.347. It also gave a relative viability (LCLC-97TM1; first compound 20 µM) of 0.236, a relative viability (LU99A; first compound 0.2 µM) of 0.312 and a relative viability (LU99A; first compound 0.6325 µM) of 0.24. The relative viability (LU99A; first compound 2 µM) was 0.263, the relative viability (LU99A; first compound 6.325 µM) was 0.22 and the relative viability (LU99A; first compound 20 µM) was 0.0441. For the same compound, the relative viability (NCI-H1755; first compound 0.2 µM) was 0.867, the relative viability (NCI-H1755; first compound 0.6325 µM) was 0.904 and the relative viability (NCI-H1755; first compound 2 µM) was 0.782. The relative viability (NCI-H1755; first compound 6.325 µM) was 0.805, the relative viability (NCI-H1755; first compound 20 µM) was 0.817 and the relative viability (NCI-H1915; first compound 0.2 µM) was 0.249. It also gave a relative viability (NCI-H1915; first compound 0.6325 µM) of 0.235, a relative viability (NCI-H1915; first compound 2 µM) of 0.239 and a relative viability (NCI-H1915; first compound 6.325 µM) of 0.256. For the same compound, the relative viability (NCI-H1915; first compound 20 µM) was 0.254, the relative viability (NCI-H1944; first compound 0.2 µM) was 0.479 and the relative viability (NCI-H1944; first compound 0.6325 µM) was 0.393. The relative viability (NCI-H1944; first compound 2 µM) was 0.415, the relative viability (NCI-H1944; first compound 6.325 µM) was 0.398 and the relative viability (NCI-H1944; first compound 20 µM) was 0.457. It also gave a relative viability (NCI-H1993; first compound 0.2 µM) of 1.21, a relative viability (NCI-H1993; first compound 2 µM) of 0.95 and a relative viability (NCI-H1993; first compound 6.325 µM) of 1.07. It also gave a relative viability (NCI-H1993; first compound 20 µM) of 0.896, a relative viability (NCI-H2342; first compound 0.2 µM) of 0.414 and a relative viability (NCI-H2342; first compound 0.6325 µM) of 0.432. It also gave a relative viability (NCI-H2342; first compound 6.325 µM) of 0.395, a relative viability (NCI-H2342; first compound 20 µM) of 0.337 and a relative viability (NCI-H3122; first compound 0.2 µM) of 0.661. The relative viability (NCI-H3122; first compound 0.6325 µM) was 0.55, the relative viability (NCI-H3122; first compound 2 µM) was 0.614 and the relative viability (NCI-H3122; first compound 6.325 µM) was 0.698. For the same compound, the relative viability (NCI-H3122; first compound 20 µM) was 0.621, the relative viability (NCI-H522; first compound 0.2 µM) was 0.656 and the relative viability (NCI-H522; first compound 0.6325 µM) was 0.599. For the same compound, the relative viability (NCI-H522; first compound 2 µM) was 0.625, the relative viability (NCI-H522; first compound 6.325 µM) was 0.604 and the relative viability (NCI-H522; first compound 20 µM) was 0.0709. The relative viability (NCI-H596; first compound 0.2 µM) was 0.718, the relative viability (NCI-H596; first compound 0.6325 µM) was 0.652 and the relative viability (NCI-H596; first compound 2 µM) was 0.6. For the same compound, the relative viability (NCI-H596; first compound 6.325 µM) was 0.735, the relative viability (NCI-H596; first compound 20 µM) was 0.238 and the relative viability (PC-3 [JPC-3]; first compound 0.2 µM) was 1.4. It also gave a relative viability (PC-3 [JPC-3]; first compound 0.6325 µM) of 1.26, a relative viability (PC-3 [JPC-3]; first compound 2 µM) of 1.11 and a relative viability (PC-3 [JPC-3]; first compound 6.325 µM) of 1.14. For the same compound, the relative viability (PC-3 [JPC-3]; first compound 20 µM) was 0.981, the relative viability (RERF-LC-KJ; first compound 0.2 µM) was 0.969 and the relative viability (RERF-LC-KJ; first compound 0.6325 µM) was 0.988. It also gave a relative viability (RERF-LC-KJ; first compound 2 µM) of 0.977, a relative viability (RERF-LC-KJ; first compound 6.325 µM) of 1.09 and a relative viability (RERF-LC-KJ; first compound 20 µM) of 0.922. The relative viability (SK-LU-1; first compound 0.2 µM) was 0.504, the relative viability (SK-LU-1; first compound 0.6325 µM) was 0.494 and the relative viability (SK-LU-1; first compound 2 µM) was 0.365. The relative viability (SK-LU-1; first compound 6.325 µM) was 0.455, the relative viability (SK-LU-1; first compound 20 µM) was 0.237 and the relative viability (SK-MES-1; first compound 0.2 µM) was 0.852. It also gave a relative viability (SK-MES-1; first compound 0.6325 µM) of 0.66, a relative viability (SK-MES-1; first compound 2 µM) of 0.779 and a relative viability (SK-MES-1; first compound 6.325 µM) of 0.622. The relative viability (SK-MES-1; first compound 20 µM) was 0.622.
